From US7625507B2, “Extrusion process for forming chemically stable drug multiparticulates” (Pfizer Inc., priority 2003, dated 2009)

Assay: Lability of drug held in molten mixture for 60 minutes
Assay type: physicochemical
Details: 50 wt % azithromycin dihydrate
Description: The multiparticulates formed by the process of the present invention comprise a labile drug and a carrier. As used herein the term “labile” refers to drugs that degrade by at least 0.01 wt % when held in a molten mixture of drug, carrier and optional excipient(s) for 60 minutes. Details on carriers and optional excipients are discussed below. The term “drug” as used herein includes, by way of example and not of limitation, any physiologically or pharmacologically active substance that produces a localized or systemic effect in animals. The term “animals” includes mammals, particularly humans, as well as other animals.
Labile drugs may be identified experimentally by determining whether the drug chemically reacts or degrades when held in the molten mixture of drug, carrier and optional excipients for 60 minutes. In general, drug degradation may be measured using any conventional method for measuring the purity or potency of drug in a pharmaceutical composition. For example, the purity or potency of the drug substance prior to formation of the molten mixture may be measured using high-performance liquid chromatography (HPLC) or other analytical techniques well known in the art. […] The purity or potency of the drug after being in the molten mixture for 60 minutes is then determined. […]

lability in molten mixture (47 wt % COMPRITOL 888 ATO, 3 wt % LUTROL F127 at 90° C. for 60 minutes): labile
lability in molten mixture (48 wt % microcrystalline wax, 2 wt % LUTROL F127, held 60 minutes): not labile
Compound: CC[C@H]1OC(=O)[C@H](C)[C@@H](O[C@H]2C[C@@](C)(OC)[C@@H](O)[C@H](C)O2)[C@H](C)[C@@H](O[C@@H]2O[C@H](C)C[C@H](N(C)C)[C@H]2O)[C@](C)(O)C[C@@H](C)CN(C)[C@H](C)[C@@H](O)[C@]1(C)O [azithromycin, 9a-aza-9a-methyl-9-deoxo-9a-homoerythromycin A]
